Results reported in patent US20150125432A1, “Human Persistent Fetal Vasculature Neural Progenitors for Transplantation in the Inner Retina” (The Schepens Eye Research Institute, Inc., priority 2012, published 2015).

Tests used:
[1] = tested on: NPPFV cells; assay: Ca2+ imaging (Fura-2) of NPPFV cells after stimulation with neurotransmitters; format: cell-based, human; settings: for percentage of responding NPPFV cells: neurotransmitter 0.1 mM, mean±SEM; for elicited [Ca2+]i of responding NPPFV cells: undifferentiated and differentiated NPPFV cells, result in words
Protocol: Cells were incubated at 37° C. for 30 min in X-vivo medium (containing 3% FBS, 5 μM Fura-2 tetra-acetoxymethyl ester, 8 μM pluronic acid F127 and 250 μM sulfinpyrazone). Cells were washed in modified Mg^2+-free Hank's balanced salt solution (HBSS, 2.6 mM CaCl2, 15 mM HEPES [pH 7.4] and 250 μM sulfinpyrazone). Five types of neurotransmitters, γ-aminobutyric acid (GABA), glutamate (Glu), glycine (Gly), dopamine (Dopa) and acetylcholine (Ach) were dissolved in modified HBSS at a concentration of 0.1 mM. The largest dynamic range for Ca^2+-dependent fluorescence signals is obtained by excitation at 340 nm and 380 nm, and detecting their ratio of emission fluorescence intensities at around 510 nm. From this ratio, the concentration of intracellular Ca^2+ ([Ca^2+]i) can be estimated, using dissociation constants that are derived from calibration curves. By using the ratio of fluorescence intensities produced by excitation at two wave lengths, factors such as uneven dye distribution and photo bleaching are minimized ([…] Ratio Imaging System, Cincinnati, Ohio). The change of [Ca^2+]i was calculated from the difference between the peak Ca^2+ concentration evoked by each agonist and the control value of HBSS (before the addition of agonist). At least 80 cells were selected for analyzing the change of [Ca^2+]i evoked by each agonist, averaged over three repetitions.

[2] = tested on: B6 mouse RGCs; assay: RGC survival assay (LIVE/DEAD) in co-culture with transfected hNPPFV cells; format: cell-based; settings: added to hNPPFV^igf-1-tdTomato co-culture; H-1356 40 μg/ml, NBI-31772 10 μM, IGF-1R antibody 1:250; words
Protocol: (§1) P0 B6 mice were euthanized with CO2 and the retinas were dissected out from the eyecups in cold Hank's buffer (Life Technologies) containing 1× Penicillin-Streptomycin-Glutamine (Life Technologies). Retinas were digested in 20 U/ml papain solution containing 100 U/ml DNaseI at 37° C. for 5-15 min; the reaction was stopped with 5 mg/ml ovomucoid protease inhibitor containing 5 mg/ml albumin. Retinas were gently triturated to obtain a single cell suspension, and cells were washed once and re-suspended in 800 μl washing buffer (0.5% BSA, 2 mM EDTA in 1×PBS). RGCs were isolated using Thy1.2 (CD90.2) microbeads and MACS® magnetic separation system (Miltenyi Biotech) following the manufacturer's instructions. […]
(§2) Co-culture inserts and culture media were removed after 3 days; RGCs were washed with 1×PBS and stained with CalceinAM and EthD-1 (LIVE/DEAD® Viability/Cytotoxicity kit, Life Technologies) for 40 min at room temperature. Images of 4-6 view fields were randomly selected throughout each well under an Olympus inverted fluorescence microscope. Live and dead cells were counted using ImageJ 1.46 (National Institutes of Health, Bethesda, Md.) and survival rates were calculated as live cells/live+dead cells×100%. […] Images were acquired with an Olympus inverted fluorescence microscope. Neurite lengths were measured using ImageJ.

[3] = tested on: B6 mouse RGCs; assay: Neurite outgrowth assay of RGCs in co-culture with transfected hNPPFV cells; format: cell-based; settings: added to hNPPFV^igf-1-tdTomato co-culture; H-1356 40 μg/ml, NBI-31772 10 μM, IGF-1R antibody 1:250; words
Protocol: as §1, §2

[4] = tested on: retina of adult C57BL/6 mice; assay: Inner retinal (intravitreal) transplantation into adult C57BL/6 mice; format: in vivo, mouse; settings: intraperitoneal RA 2 mg/kg·day, 3 weeks; result in words
Text: For studying their potential for inner retinal transplantation, NPPFV cells or hRPCs were intravitreally injected to 20 and 10 C57BL/6 mice, respectively. Animals were maintained in standard animal facility. To trace the transplanted cells, NPPFV cells and hRPCs were infected with an AAV2 or retrovirus vector harboring EGFP (HGTI, Boston, Mass.) following the instructions of each transfection kit, respectively. Mice (4-6 weeks of age) were deeply anesthetized with an intraperitoneal injection of ketamine (120 mg/kg) and xylazine (20 mg/kg) and pupils were dilated with 0.5% topical tropicamide. Dissociated GFP-positive cells (1×10^5 cells/2 μl) were suspended in HBSS […] of the eye through a glass micropipette connected to a 10 μl Hamilton syringe via polyethylene tubing. Sham-injected mice received HBSS without cells. All experimental animals received injection in one eye and the other eye was used as an untreated control. […] Anti-GFP antibody (1:100, ABCAM, USA) was used to enhance the fluorescence of prelabled-GFP, while anti-β-III-tubulin (1:500, Sigma, USA), anti-GFAP (1:300, Sigma, USA) and anti-synaptophysin (1:100, DAKO, USA) antibodies helped to assess the differentiation of the transplanted cells. […] Every 10th serial section was counted, measuring […] in thickness as to avoid redundancy of cell counts.

[5] = biological target: IGF-1 receptor on B6 mouse retinal ganglion cells (mouse) (UniProt Q60751); assay: cell-based or functional assay
Sequence of UniProt Q60751 (Q60751 31-1373): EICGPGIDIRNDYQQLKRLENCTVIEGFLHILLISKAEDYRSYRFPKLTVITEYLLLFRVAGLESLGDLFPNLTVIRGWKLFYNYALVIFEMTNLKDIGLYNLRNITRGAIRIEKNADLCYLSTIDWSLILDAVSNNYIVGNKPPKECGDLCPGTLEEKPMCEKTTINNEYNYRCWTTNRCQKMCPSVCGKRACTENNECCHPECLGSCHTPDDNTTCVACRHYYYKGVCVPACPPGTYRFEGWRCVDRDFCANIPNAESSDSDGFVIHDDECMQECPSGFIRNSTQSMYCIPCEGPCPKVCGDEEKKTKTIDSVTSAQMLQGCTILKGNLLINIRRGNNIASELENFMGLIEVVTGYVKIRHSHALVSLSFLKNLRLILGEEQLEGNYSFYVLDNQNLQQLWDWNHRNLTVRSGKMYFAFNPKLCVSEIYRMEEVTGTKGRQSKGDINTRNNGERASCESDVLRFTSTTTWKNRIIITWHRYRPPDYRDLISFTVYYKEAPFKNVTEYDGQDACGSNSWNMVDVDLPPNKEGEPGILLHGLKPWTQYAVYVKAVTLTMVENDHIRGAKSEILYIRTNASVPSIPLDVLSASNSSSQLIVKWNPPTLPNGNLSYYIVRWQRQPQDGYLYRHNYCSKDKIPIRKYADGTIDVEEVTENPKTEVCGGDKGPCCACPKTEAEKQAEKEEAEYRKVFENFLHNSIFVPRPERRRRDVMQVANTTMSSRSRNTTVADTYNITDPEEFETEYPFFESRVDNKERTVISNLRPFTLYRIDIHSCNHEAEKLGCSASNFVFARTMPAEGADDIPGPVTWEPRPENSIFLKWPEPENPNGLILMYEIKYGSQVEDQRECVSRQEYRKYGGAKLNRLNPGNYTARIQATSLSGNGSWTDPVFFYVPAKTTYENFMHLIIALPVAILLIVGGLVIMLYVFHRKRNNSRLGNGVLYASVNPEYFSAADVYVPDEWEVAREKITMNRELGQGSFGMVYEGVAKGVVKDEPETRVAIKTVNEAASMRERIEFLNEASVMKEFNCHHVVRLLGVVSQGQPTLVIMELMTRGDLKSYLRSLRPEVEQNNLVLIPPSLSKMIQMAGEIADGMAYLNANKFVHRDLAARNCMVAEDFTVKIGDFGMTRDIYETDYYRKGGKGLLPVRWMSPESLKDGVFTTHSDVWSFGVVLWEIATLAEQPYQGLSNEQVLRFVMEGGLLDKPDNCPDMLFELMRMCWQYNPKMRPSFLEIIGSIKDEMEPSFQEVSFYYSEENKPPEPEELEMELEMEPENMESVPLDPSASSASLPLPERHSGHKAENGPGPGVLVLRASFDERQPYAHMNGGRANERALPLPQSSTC

CC(=O)OCC[N+](C)(C)C [Ach, acetylcholine]
percentage of responding NPPFV cells ([1]; differentiated NPPFV cells): 8.23±5.41% | percentage of responding NPPFV cells ([1]; undifferentiated NPPFV cells): 10.96±8.12%

NCCc1ccc(O)c(O)c1 [Dopa, dopamine]
percentage of responding NPPFV cells ([1]; differentiated NPPFV cells): 7.89±9.18% | percentage of responding NPPFV cells ([1]; undifferentiated NPPFV cells): 6.41±7.14% | elicited [Ca2+]i of responding NPPFV cells [1]: quite low

NCCCC(=O)O [GABA, γ-aminobutyric acid]
percentage of responding NPPFV cells ([1]; differentiated NPPFV cells): 12.99±4.86% | percentage of responding NPPFV cells ([1]; undifferentiated NPPFV cells): 14.94±11.73% | elicited [Ca2+]i of responding NPPFV cells [1]: quite low

N[C@@H](CCC(=O)O)C(=O)O [Glu, glutamate]
percentage of responding NPPFV cells ([1]; differentiated NPPFV cells): 87.88±4.97% | percentage of responding NPPFV cells ([1]; undifferentiated NPPFV cells): 48.98±11.67% | elicited [Ca2+]i of responding NPPFV cells [1]: significant increase

NCC(=O)O [Gly, glycine]
percentage of responding NPPFV cells ([1]; differentiated NPPFV cells): 21.05±9.72% | percentage of responding NPPFV cells ([1]; undifferentiated NPPFV cells): 16.67±10.62% | elicited [Ca2+]i of responding NPPFV cells [1]: quite low

O=C(O)c1cc2cc(O)c(O)cc2c(C(=O)c2ccc(O)c(O)c2)n1 [NBI-31772]
effect on IGF-1-tdTomato-mediated RGC survival [2]: completely eliminated the effects | effect on IGF-1-tdTomato-mediated neurite outgrowth [3]: completely eliminated the effects

CC1=C(/C=C/C(C)=C/C=C/C(C)=C/C(=O)O)C(C)(C)CCC1 [RA, all-trans-retinoic acid]
differentiation of engrafted NPPFV cells into retinal ganglion-like neurons [4]: significantly increases the differentiation of engrafts into retinal ganglion-like mature neurons

IGF-1-tdTomato fusion protein (from UniProt P05017 49-118) (ligand)
average neurite length of RGCs co-cultured with hNPPFV^igf-1-tdTomato cells [5]: 93 µm | neurites per RGC co-cultured with hNPPFV^igf-1-tdTomato cells (neurites/cell) [5]: 2 | survival rate of RGCs co-cultured with hNPPFV^igf-1-tdTomato cells [5]: 22%
